The record followed here is patent US20240190858A1, “CRYSTALLINE FORMS, PHARMACEUTICAL COMPOSITIONS AND METHODS OF USE THEREOF” (priority 2022, published 2024).

The test system of data set [1] is MTAP-null OCI-LY19 cell line tumors. Description: OCI-LY19 MTAP-null xenograft, switch from TNG908 to compound of Formula (I). Format: in vivo, mice. The note with it: 120 mg/kg BID. An excerpt: The data is shown in FIG. 10A and FIG. 10B as mean±SEM. Regression is defined as final mean tumor volume <30% initial mean tumor volume.
A short description of data set [2]: Oral pharmacokinetics in cynomolgus monkey. Format: in vivo, cynomolgous monkeys. As to conditions: 3 mg/kg via oral gavage, n=3. An excerpt:
The dotted lines indicate the HAP1 MTAP-null and MTAP WT GI50s from a 7-day viability assay the compound. The data is presented as mean±SD.

Data set [3] deals with MTAP-null NCI-H838 NSCLC CDX. As to the kind of experiment: MTAP-null NCI-H838 NSCLC CDX model, combination with AGI-41998. In kind it is in vivo. The note with it: AGI-41998 at 10 mg/kg QD, minimum of 28 days. On the procedure:
Briefly the groups were treated for a minimum of 28 days and tumor-volumes were monitored for the indicated time period.

Regarding `Cc1cc(NC(=O)C(=O)N2C[C@@H](C)CC[C@@H]2c2ccc3scnc3c2)cnc1N` [TNG908], in data set [1], the “tumor response under continuous dosing” value is “appear to have developed resistance”.

`CCc1cc(NC(=O)C(=O)N2C[C@@H](C)CC[C@@H]2c2ccc3sc(C4CCN(C)CC4)nc3c2)cnc1N` [compound of Formula (I), N-(6-amino-5-ethylpyridin-3-yl)-2-((2R,5S)-5-methyl-2-(2-(1-methylpiperidin-4-yl)benzo[d]thiazol-5-yl)piperidin-1-yl)-2-oxoacetamide]: the pharmacokinetic properties result in data set [2] is on record as “good pharmacokinetic properties”.

In the case of AGI-41998, the “change in tumor volume” value in data set [3] is “increases in tumor volumes”.
